Data taken from patent US20010007675A1, “Cosmetic and dermatological compositions containing aminoalchohol derivatives containing a urea functional group and uses thereof” (L'OREAL, priority 1996, published 2001).

Key:
[1] = Measurement of the imperceptible water loss (IWL) with an evaporimeter (Servomed); conditions: compound at 1% in dichloromethane/methanol (2/1 v/v), applied on delipidated stratum corneum; measured 20 hours after application
Protocol: Measurement of the imperceptible water loss (IWL)
This measurement was carried out using an evaporimeter (Servomed) which quantitatively determines the evaporation of water, that is transportation of water by diffusion, from a stratum corneum sample which seals a cylindrical capsule containing water, the whole assembly being placed in a chamber with controlled relative temperature and controlled relative humidity.
Sensors made it possible to measure the partial vapour pressure of water at two points situated at different distances from the sample.
The partial vapour pressure of water gradient between the two points was thus determined and therefore the degree of evaporation in accordance with Fick's law.
This measurement is carried out for:
The compounds were prepared in the proportion of 1% in a dichloromethane/methanol (2/1 v/v) mixture and then applied on pieces of delipidated stratum comeum.
The imperceptible water loss (IWL) for each compound was measured 20 hours after application.

SMILES	melting point	I.W.L. (imperceptible water loss) [1]
CCCCCCCCCCCCNC(=O)N(C)C[C@H](O)[C@@H](O)[C@H](O)[C@H](O)CO [Example 1, N-dodecylaminocarbonyl-N-methyl-D-glucamine]	116.8 °C	−21 +/− 2
CCCCCCCCNC(=O)N(C)C[C@H](O)[C@@H](O)[C@H](O)[C@H](O)CO [Example 8, N-octylaminocarbonyl-N-methyl-D-glucamine]	111.4 °C	–
CCCCCCCCCCCC(=O)N(C)C[C@H](O)[C@@H](O)[C@H](O)[C@H](O)CO [Reference A, N-dodecanoyl-N-methyl-D-glucamine]	–	−11 +/− 3
CCCCCCCCCCCCOC(=O)N(C)C[C@H](O)[C@@H](O)[C@H](O)[C@H](O)CO [Reference B, N-dodecyloxycarbonyl-N-methyl-D-lucamine]	–	−9 +/− 2
